{"source": "paper PMC4734340", "about": "“Structural and functional attributes of malaria parasite diadenosine tetraphosphate hydrolase” (Scientific Reports, 2016)", "biological_target": "T1, P. falciparum diadenosine tetraphosphate (Ap4A) hydrolase (PfAp4AH) (Plasmodium falciparum, UniProt C0H4F3)", "T1 construct": "gene PF3D7_0520600; Full length PfAp4AH, recombinant from E. coli, His-tag removed", "T1 sequence (C0H4F3 1-152)": "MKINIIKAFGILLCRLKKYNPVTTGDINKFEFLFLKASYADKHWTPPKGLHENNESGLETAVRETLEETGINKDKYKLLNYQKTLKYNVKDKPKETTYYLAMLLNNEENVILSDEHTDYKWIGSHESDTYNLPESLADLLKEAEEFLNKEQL", "experiment": "ITC at […] °C (n = […]); also enzyme inhibition IC50 […] and thermal shift (negative ΔTm)", "type": "binding", "data": [{"smiles": "Cc1ccc(C(=O)Nc2ccc(S(=O)(=O)O)c3cc(S(=O)(=O)O)cc(S(=O)(=O)O)c23)cc1NC(=O)c1cccc(NC(=O)Nc2cccc(C(=O)Nc3cc(C(=O)Nc4ccc(S(=O)(=O)O)c5cc(S(=O)(=O)O)cc(S(=O)(=O)O)c45)ccc3C)c2)c1", "note": "[suramin]", "values": [{"measurement": "Kd", "value": "18.1 ± 1.1", "unit": "µM"}]}]}
